# Measured values from patent US10479795B2 (Incyte Corporation, priority 2016, dated 2019).
# pIC50: −log10 of the molar value. Where a name gives a salt, the structure may show the parent alone. Read-outs that look alike come from different tables or passages of the source.
# Columns and labels:
# [1] = tested on: Phosphorylated Ribosomal Protein S6 (RPS6); experiment: THP-1 RPS6 ELISA Assay; type: cell-based, Human; conditions: THP-1 cells, read-out: PI3Kγ_THP1_RPS6_ELISA IC50
# In short: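 Serum-starved THP-1 cells were preincubated with a concentration range of compound for 2 h at 37 °C, then stimulated with 10 nM MCP-1 for 15 min. Phospho-RPS6 in lysates was quantified by ELISA at 450 nm. IC50 came from percent inhibition versus log inhibitor concentration.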
# [2] = target: PI3Kγ (p110γ) Recombinant Human Protein (Homo sapiens (Human), UniProt P48736); experiment: PI3K-γ Scintillation Proximity Assay; type: biochemical; conditions: read-out: PI3Kγ IC50
# In short: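 Recombinant human p110γ assayed at room temperature in 20 mM MOPS pH 6.7, 10 mM MgCl2, 5 mM DTT, 0.03% CHAPS, 2% DMSO, with 20 μM PIP2 and 2 μM ATP plus [γ-33P]ATP. Product captured on WGA SPA beads overnight and counted; IC50 fitted from % of solvent-control activity versus log inhibitor concentration.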
# [3] = target: PI3Kδ (p110δ/p85α) Recombinant Human Protein (Homo sapiens (Human), UniProt O00329); experiment: PI3Kδ Scintillation Proximity Assay; type: biochemical
# In short: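 Recombinant human p110δ/p85α (3.4 nM) phosphorylates 20 μM di-octanoyl PIP2 using 2 μM ATP spiked with [γ-33P]ATP, 120 min, room temperature, pH 6.7, 2% DMSO. Product measured by scintillation proximity; IC50 from dose-response fit.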
# PI3Kγ (p110γ) Recombinant Human Protein, sequence (P48736 whole entry): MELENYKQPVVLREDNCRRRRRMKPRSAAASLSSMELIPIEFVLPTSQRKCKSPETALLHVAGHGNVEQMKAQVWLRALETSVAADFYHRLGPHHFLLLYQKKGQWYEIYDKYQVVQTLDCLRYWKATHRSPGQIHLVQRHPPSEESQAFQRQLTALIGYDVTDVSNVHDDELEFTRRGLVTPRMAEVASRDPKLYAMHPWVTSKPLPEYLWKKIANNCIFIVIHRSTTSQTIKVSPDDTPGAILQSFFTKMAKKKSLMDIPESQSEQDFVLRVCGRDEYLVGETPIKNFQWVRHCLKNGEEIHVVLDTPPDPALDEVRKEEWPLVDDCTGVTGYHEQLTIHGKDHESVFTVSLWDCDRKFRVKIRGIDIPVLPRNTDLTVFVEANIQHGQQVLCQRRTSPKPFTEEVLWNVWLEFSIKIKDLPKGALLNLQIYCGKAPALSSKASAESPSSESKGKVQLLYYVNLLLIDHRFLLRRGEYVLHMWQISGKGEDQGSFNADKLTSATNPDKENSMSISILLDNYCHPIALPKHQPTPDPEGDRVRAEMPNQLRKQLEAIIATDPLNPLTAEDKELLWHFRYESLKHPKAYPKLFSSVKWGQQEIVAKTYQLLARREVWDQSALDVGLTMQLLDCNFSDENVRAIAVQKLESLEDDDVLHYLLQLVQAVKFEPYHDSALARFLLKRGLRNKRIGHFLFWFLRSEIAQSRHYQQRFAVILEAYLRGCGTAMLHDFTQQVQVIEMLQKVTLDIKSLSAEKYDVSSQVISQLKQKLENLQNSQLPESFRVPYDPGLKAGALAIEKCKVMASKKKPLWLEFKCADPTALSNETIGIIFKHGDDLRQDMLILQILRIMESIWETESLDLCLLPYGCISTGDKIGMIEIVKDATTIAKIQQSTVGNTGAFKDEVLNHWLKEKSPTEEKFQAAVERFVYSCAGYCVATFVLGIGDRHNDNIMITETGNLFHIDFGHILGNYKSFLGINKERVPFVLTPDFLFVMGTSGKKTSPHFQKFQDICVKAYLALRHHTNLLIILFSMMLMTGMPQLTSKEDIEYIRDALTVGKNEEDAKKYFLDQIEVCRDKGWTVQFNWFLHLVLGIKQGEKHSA
# PI3Kδ (p110δ/p85α) Recombinant Human Protein, sequence (O00329 whole entry): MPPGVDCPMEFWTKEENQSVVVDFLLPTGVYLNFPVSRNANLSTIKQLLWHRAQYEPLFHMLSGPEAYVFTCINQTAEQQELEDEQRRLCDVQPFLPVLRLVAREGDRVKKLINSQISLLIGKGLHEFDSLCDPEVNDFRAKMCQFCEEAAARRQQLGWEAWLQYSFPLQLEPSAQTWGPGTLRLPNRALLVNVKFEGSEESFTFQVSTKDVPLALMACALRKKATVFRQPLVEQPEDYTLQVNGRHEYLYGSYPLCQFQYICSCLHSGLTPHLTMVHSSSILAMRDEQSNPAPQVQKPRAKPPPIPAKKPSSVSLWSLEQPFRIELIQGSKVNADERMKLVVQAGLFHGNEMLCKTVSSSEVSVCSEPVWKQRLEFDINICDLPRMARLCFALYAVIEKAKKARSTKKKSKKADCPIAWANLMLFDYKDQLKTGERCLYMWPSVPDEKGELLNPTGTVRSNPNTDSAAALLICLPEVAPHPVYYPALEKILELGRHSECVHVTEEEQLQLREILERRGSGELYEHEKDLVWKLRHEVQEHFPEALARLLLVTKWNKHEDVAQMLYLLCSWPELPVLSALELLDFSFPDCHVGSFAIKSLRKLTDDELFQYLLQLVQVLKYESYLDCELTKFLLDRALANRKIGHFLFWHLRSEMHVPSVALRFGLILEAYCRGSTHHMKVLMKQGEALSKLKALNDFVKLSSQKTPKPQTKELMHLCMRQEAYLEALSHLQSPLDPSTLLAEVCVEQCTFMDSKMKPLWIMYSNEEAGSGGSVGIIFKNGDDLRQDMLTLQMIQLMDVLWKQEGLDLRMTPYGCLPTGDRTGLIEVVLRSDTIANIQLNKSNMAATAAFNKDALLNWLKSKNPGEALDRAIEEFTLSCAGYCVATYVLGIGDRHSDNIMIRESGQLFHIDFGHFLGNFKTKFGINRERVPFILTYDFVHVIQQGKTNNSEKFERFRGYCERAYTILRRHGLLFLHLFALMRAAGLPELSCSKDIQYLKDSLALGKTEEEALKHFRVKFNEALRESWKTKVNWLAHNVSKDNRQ
# PI3Kδ (p110δ/p85α) Recombinant Human Protein, sequence (P27986 whole entry partner): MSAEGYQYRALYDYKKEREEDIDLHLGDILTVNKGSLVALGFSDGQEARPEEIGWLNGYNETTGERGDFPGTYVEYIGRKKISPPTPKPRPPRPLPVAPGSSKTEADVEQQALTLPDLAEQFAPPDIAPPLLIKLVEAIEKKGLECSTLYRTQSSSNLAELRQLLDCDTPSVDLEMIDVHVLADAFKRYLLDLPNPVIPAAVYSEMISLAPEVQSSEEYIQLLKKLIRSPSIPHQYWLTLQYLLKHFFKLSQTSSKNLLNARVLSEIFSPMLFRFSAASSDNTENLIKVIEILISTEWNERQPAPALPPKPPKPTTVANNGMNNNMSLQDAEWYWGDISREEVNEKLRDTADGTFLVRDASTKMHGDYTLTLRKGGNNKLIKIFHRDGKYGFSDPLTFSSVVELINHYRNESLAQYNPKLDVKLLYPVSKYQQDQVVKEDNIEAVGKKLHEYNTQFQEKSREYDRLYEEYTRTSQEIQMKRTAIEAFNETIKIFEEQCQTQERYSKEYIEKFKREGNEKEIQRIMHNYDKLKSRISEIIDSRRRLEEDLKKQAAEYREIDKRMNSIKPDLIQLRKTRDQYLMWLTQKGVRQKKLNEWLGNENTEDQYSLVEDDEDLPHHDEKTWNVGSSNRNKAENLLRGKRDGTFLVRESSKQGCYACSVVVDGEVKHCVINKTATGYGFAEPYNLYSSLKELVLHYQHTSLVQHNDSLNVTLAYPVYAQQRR
SMILES,pIC50 [2],pIC50 [3],pIC50 ([1]; Homo sapiens),pIC50 [1]
"Cc1ccc(S(=O)(=O)NC2CN(C)C2)cc1-c1cnc2c(N)nc(C(F)(F)F)nn12 [Example 322, 3-(4-Amino-2-(trifluoromethyl)imidazo[1,2-f][1,2,4]triazin-7-yl)-4-methyl-N-(1-methylazetidin-3-yl)benzenesulfonamide]",> 7.00,6.30 to 7.00,,> 7.00
"Cc1ccc(S(=O)(=O)CCC(C)(C)O)cc1-c1cnc2c(N)nc(C(F)(F)F)cn12 [Example 495, 4-((3-(8-Amino-6-(trifluoromethyl)imidazo[1,2-a]pyrazin-3-yl)-4-methylphenyl)sulfonyl)-2-methylbutan-2-ol]",> 7.00,5.70 to 6.30,,< 6.00
"Nc1nccn2c(-c3ccc(F)c(S(=O)(=O)NCC4(CO)CCOCC4)c3)cnc12 [Example 360, 5-(8-aminoimidazo[1,2-a]pyrazin-3-yl)-2-fluoro-N-((4-(hydroxymethyl)tetrahydro-2H-pyran-4-yl)methyl)benzenesulfonamide]",6.30 to 7.00,6.30 to 7.00,< 6.00,
"Cc1ccc(S(=O)(=O)N2C(C)COCC2C)cc1-c1cnc2c(N)ncnn12 (stereo not drawn) [Example 155, 7-(5-((3,5-dimethylmorpholino)sulfonyl)-2-methylphenyl)imidazo[2,1-f][1,2,4]triazin-4-amine]",> 7.00,6.30 to 7.00,6.30 to 7.00,
"Cc1ccc(S(=O)(=O)N[C@H]2CC[C@H](O)CC2)cc1-c1cnc2c(N)nc(C(C)C)cn12 [Example 504, 3-(8-Amino-6-isopropylimidazo[1,2-a]pyrazin-3-yl)-N-(trans-4-hydroxycyclohexyl)-4-methylbenzenesulfonamide]",> 7.00,> 7.00,> 7.00,

# Continued, in another order:
pIC50 [2],pIC50 [3],pIC50 ([1]; Homo sapiens),SMILES,pIC50 [1]
> 7.00,6.30 to 7.00,6.30 to 7.00,"Cc1ccc(S(C)(=O)=O)cc1-c1cnc2c(N)nc(-c3ccc(C(C)O)cc3F)cn12 (stereo not drawn) [Example 488, 1-(4-(8-Amino-3-(2-methyl-5-(methylsulfonyl)phenyl)imidazo[1,2-a]pyrazin-6-yl)-3-fluorophenyl)ethan-1-ol]",
> 7.00,5.70 to 6.30,< 6.00,"Cc1ccc(S(=O)(=O)NCCN2CCCC2=O)cc1-c1cnc2c(N)ncnn12 [Example 138, 3-(4-aminoimidazo[2,1-f][1,2,4]triazin-7-yl)-4-methyl-N-(2-(2-oxopyrrolidin-1-yl)ethyl)benzenesulfonamide]",
> 7.00,6.30 to 7.00,,"N#CC12CCC(NS(=O)(=O)c3cc(-c4cnc5c(N)nc(C(F)(F)F)nn45)ccc3F)(C1)C2 [Example 417, 5-(4-Amino-2-(trifluoromethyl)imidazo[1,2-f][1,2,4]triazin-7-yl)-N-(4-cyanobicyclo[2.1.1]hexan-1-yl)-2-fluorobenzenesulfonamide trifluoroacetate salt]",6.00 to 6.30
> 7.00,5.70 to 6.30,,"Cc1ccc(S(=O)(=O)NC23CC(C2)C3)cc1-c1cnc2c(N)ncnn12 [Example 106, 3-(4-Aminoimidazo[1,2-f][1,2,4]triazin-7-yl)-N-(bicyclo[1.1.1]pentan-1-yl)-4-methylbenzenesulfonamide trifluoroacetate salt]",< 6.00
> 7.00,5.70 to 6.30,< 6.00,"Cc1ccc(S(=O)(=O)NC2CCCCC2O)cc1-c1cnc2c(N)ncnn12 (stereo not drawn) [Example 137, 3-(4-aminoimidazo[2,1-f][1,2,4]triazin-7-yl)-N-(2-hydroxycyclohexyl)-4-methylbenzenesulfonamide]",
> 7.00,5.70 to 6.30,> 7.00,"Cc1ccc(S(=O)(=O)N[C@H]2CC[C@H](O)CC2)cc1-c1cnc2c(N)c(Cl)ccn12 [Example 11, 3-(8-Amino-7-chloroimidazo[1,2-a]pyridin-3-yl)-N-(trans-4-hydroxycyclohexyl)-4-methylbenzenesulfonamide trifluoroacetate]",
